According to patent US20170321283A1, “METHODS OF DIAGNOSING CANCER AND OF PREDICTING RESPONSE OF CANCER TO DENDROGENIN A TREATMENT” (INSERM (INSTITUT NATIONAL DE LA SANTÉ ET DE LA RECHERCHE …, priority 2014, published 2017):
Entries after “also recorded” stand apart in the source; their conditions may differ. Blank lines part the entries; values can stand above or below the molecule they belong to.

Tests used:
[1] = biological target: T1, hGSTA1 (Homo sapiens, UniProt P08263); test: CDO-SG biosynthesis by hGSTA1 (glutathionylation of 5,6α-EC); type: biochemical; conditions: for Inhibition of CDO-SG biosynthesis: 1 and 10 mM CDNB, 1 and 10 μM HA, 1 μM 5,6β-EC, 10 μM CT, OCDO, 27-HC or 22(R)-HC (FIG. 2g-h)
T1 construct: purchased Novus NBP1-30307
T1 sequence (P08263 1-222): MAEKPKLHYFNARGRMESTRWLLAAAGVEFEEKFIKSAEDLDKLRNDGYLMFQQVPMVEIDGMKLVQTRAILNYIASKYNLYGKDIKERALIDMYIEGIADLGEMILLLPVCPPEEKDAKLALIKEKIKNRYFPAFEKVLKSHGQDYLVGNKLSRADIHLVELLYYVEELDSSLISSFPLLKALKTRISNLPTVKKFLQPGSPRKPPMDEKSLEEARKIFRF
Description: (§1) The mixture was incubated for 30 minutes at 30° C., and the reaction was stopped by addition of 200 μl MeOH. After centrifugation 10 min at 18,000 g (4° C.), the supernatant was evaporated to dryness using a speed vac concentrator (Savant SP01010, Thermo scientific) and the residue was resuspended in 20 μl MeOH. Samples were spotted on HPTLC NanoSilgur 10×10 cm plates (Macherey Nagel, ref 811042) and developed using ethyl acetate/butanol/acetic acid/water (6:2:3:2) for CDO-SG and CH2Cl/MeOH/NH4OH 84:15:1 for DDA. Standards were co-spotted with samples. […] The radioactivity was quantified by liquid scintillation counting of the ethanol extract of the silica scraped at the retention factor (Rf) corresponding to authentic 5,6α-EC, CDO-SG or DDA standards.

[2] = biological target: T1, hGSTA1; test: Glutathionylation of CDNB by recombinant hGSTA1 (CDNB-SG biosynthesis); type: biochemical; conditions: for Inhibition of CDNB-SG biosynthesis: 1 and 10 μM 5,6α-EC or HA (FIG. 2c)
Description: The mixture was incubated for 30 min at 30° C. and the reaction was stopped with 200 μl MeOH. Measurements were carried out spectrophotometrically at 345 nm (Am=8.5 mM^−1·cm^−1). The negative control corresponds to the same test performed in absence of hGSTA1.

[3] = biological target: T1, hGSTA1; test: DDA biosynthesis by hGSTA1 (histaminylation of 5,6α-EC, DDAS activity); type: biochemical; conditions: for Inhibition of DDA biosynthesis (DDAS): 10 mM CDNB, 1 μM 5,6β-EC or 10 μM CT, OCDO, 27-HC or 22(R)-HC (FIG. 3d-e)
Description: as §1

[4] = test system: LXR; conditions: endogenous LXR ligand; cited from earlier work
[5] = substrate: N[C@@H](CCC(=O)N[C@@H](CS)C(=O)NCC(=O)O)C(=O)O; test: purified protein, by the assay type; conditions: other: substrates 5,6α-EC + GSH, product CDO-SG; pH 7.5; 30.0 °C
[6] = substrate: NCCc1c[nH]cn1; test: purified protein, by the assay type; conditions: other: substrates 5,6α-EC + histamine, product DDA; pH 7.5; 30.0 °C
[7] = substrates 5,6α-EC + GSH, product CDO-SG, Table 1
[8] = substrates 5,6α-EC + histamine, product DDA, Table 1

Molecule: CC(C)CCC[C@@H](C)[C@H]1CC[C@H]2[C@@H]3C[C@@H](O)[C@@]4(O)C[C@@H](O)CC[C@]4(C)[C@H]3CC[C@]12C [CT]
Inhibition of CDO-SG biosynthesis [1]: potent inhibitors

Molecule: CC(C)CCC[C@@H](C)[C@H]1CC[C@H]2[C@@H]3C[C@@H](SC[C@H](NC(=O)CC[C@H](N)C(=O)O)C(=O)NCC(=O)O)[C@@]4(O)C[C@@H](O)CC[C@]4(C)[C@H]3CC[C@]12C [CDO-SG, 3β,5α-dihydroxycholestan-6β-yl-S-glutathione]
weaker capacity to produce CDO-SG than to produce CDNB-SG ([1]; ratio of maximum velocities): 24.10^6 fold

Vm^GSH ([2]; CDNB + GSH to CDNB-SG): 8.12 μmol·min^−1·mg prot
IC50 ([3]; read-out: IC50, inhibition of the biosynthesis of DDA): 52 µM
Vm^GSH [1, 7]: 1.50 pmol · min^−1 · mg · pr
Molecule: N[C@@H](CCC(=O)N[C@@H](CS)C(=O)NCC(=O)O)C(=O)O [GSH, glutathione]

Molecule: CC(C)CCCC(C)[C@H]1CCC2C3C[C@@H](NCCc4cnc[nH]4)[C@@]4(O)C[C@@H](O)CC[C@]4(C)C3CC[C@@]21C (some centres unmarked) [DDA, 5-hydroxy-6-[2-(1H-imidazol-4-yl)ethylamino]cholestan-3-ol]
affinity for LXR [4]: sub-μM

Molecule: O=[N+]([O-])c1ccc(Cl)c([N+](=O)[O-])c1 [CDNB, 1-chloro-2,4-dinitrobenzene]
Vm^CDNB ([2]; CDNB + GSH to CDNB-SG): 274 μmol·min^−1·mg prot
Km ([2]; read-out: Km^CDNB, substrates CDNB + GSH, product CDNB-S-G): 32.2 µM
Vm^CDNB ([2]; substrates CDNB + GSH, product CDNB-S-G, Table 1): 274 µmol/min/mg
Inhibition of DDA biosynthesis (DDAS) [3]: did not inhibit
Inhibition of CDO-SG biosynthesis [1]: did not inhibit

Molecule: CC(C)CCC[C@@H](C)[C@H]1CC[C@H]2[C@@H]3C[C@H]4O[C@]45C[C@@H](O)CC[C@]5(C)[C@H]3CC[C@]12C [5,6β-EC, 5,6β-epoxy-cholesterol]
Inhibition of DDA biosynthesis (DDAS) [3]: most potent inhibitor; also recorded: potent inhibitor
Inhibition of CDO-SG biosynthesis [1]: potent inhibitors

Molecule: CC(C)CCC[C@@H](C)[C@H]1CC[C@H]2[C@@H]3C[C@@H]4O[C@@]45C[C@@H](O)CC[C@]5(C)[C@H]3CC[C@]12C [5,6α-EC, 5,6α-epoxy-cholesterol]
Inhibition of CDNB-SG biosynthesis [2]: not inhibitors
catalytic efficiency higher to transform 5,6α-EC compared to CDNB [3]: 60 fold
Vm^5,6EC ([3]; 5,6-EC + HA to DDA): 0.81 pmol·min^−1·mg prot
Km ([3]; substrates 5,6α-EC + histamine, product DDA): 280 nM
Vm^5,6-EC [3, 8]: 0.81 pmol · min^−1 · mg.pr
Vm^5,6-EC ([1]; 5,6-EC + GSH to CDO-SG): 1.33 pmol·min^−1·mg prot
higher affinity of hGSTA1 for 5,6-EC than for CDNB ([1]; ratio of Km): 73 fold
Km ([1]; substrates 5,6α-EC + GSH, product CDO-SG): 440 nM
Vm^5,6-EC [1, 7]: 1.33 pmol · min^−1 · mg.pr

Inhibition of CDNB-SG biosynthesis [2]: not inhibitors
catalytic efficiency higher to transform HA compared to GSH [3]: 60 fold
weaker Km for HA than for GSH ([3]; DDA biosynthesis versus CDO-SG biosynthesis): 135 fold
Vm^His [3, 8]: 0.66 pmol · min^−1 · mg · pr
Inhibition of CDO-SG biosynthesis [1]: potent inhibitor
Molecule: NCCc1c[nH]cn1 [HA, histamine]

Molecule: CC(C)CCC[C@@H](C)[C@H]1CC[C@H]2[C@@H]3CC(=O)[C@@]4(O)C[C@@H](O)CC[C@]4(C)[C@H]3CC[C@]12C [OCDO]
Inhibition of CDO-SG biosynthesis [1]: potent inhibitors

B1: hGSTA1 (Homo sapiens) (protein)
chain: MAEKPKLHYFNARGRMESTRWLLAAAGVEFEEKFIKSAEDLDKLRNDGYLMFQQVPMVEIDGMKLVQTRAILNYIASKYNLYGKDIKERALIDMYIEGIADLGEMILLLPVCPPEEKDAKLALIKEKIKNRYFPAFEKVLKSHGQDYLVGNKLSRADIHLVELLYYVEELDSSLISSFPLLKALKTRISNLPTVKKFLQPGSPRKPPMDEKSLEEARKIFRF
Km [5]: 47 µM
Vmax [5]: 1.50 pmol·min^−1·mg prot
Km [6]: 0.35 µM
Vmax [6]: 0.66 pmol·min^−1·mg prot
